In US9867831B2, “Combination treatment of acute myeloid leukemia and myelodysplastic syndrome” (Boehringer Ingelheim International GmbH, priority 2014, dated 2018):

Test system: human AML cell line MV4;11
Assay: Nude mouse xenograft model derived from human AML cell line MV4;11 (tumor growth)
Type: in vivo
Settings: MV4;11 s.c. xenograft in nude mice; Volasertib 20 mg/kg once a week i.v., Quizartinib 5 or 10 mg/kg daily p.o.; treated 14 days, observation without treatment up to day 87
Protocol: Median tumor volumes are plotted over time. Day 1 was the first day, day 87 the last day of the experiment.
MV4;11 (CRL-9591) cells were obtained from ATCC. […] Cells were cultured in T175 tissue culture flasks at 37° C. and 5% CO2. The medium used was IMDM supplemented with 10% fetal calf serum, 1% NEAA, 1% sodium pyruvate and 1% glutamine.
Mice were 8 week-old athymic female BomTac: NMRI-Foxn1^nu purchased from Taconic, Denmark. After arrival in the animal facility, mice were allowed to adjust to ambient conditions for at least 3 days before they were used for experiments. They were housed in Macrolon® type II cages in groups of 5 under standardized conditions at 21.5±1.5° C. temperature and 55±10% humidity. Standardized diet (PROVIMI KLIBA) and autoclaved tap water were provided ad libitum.
To establish subcutaneous tumors, MV4;11 cells were harvested and resuspended in PBS+5% FCS at 5×10^7 cells/ml. 50 μl of the cell suspension containing 2.5×10^6 cells was then injected subcutaneously into the right flank of the mice (1 site per mouse). […]
The tumor diameter was measured three times a week with a caliper. The volume of each tumor [in mm^3] was calculated according to the formula “tumor volume=length*diameter^2*π/6”. To monitor side effects of treatment, mice were inspected daily for abnormalities and body weight was determined three times a week. […]

## CC(C)(C)c1cc(NC(=O)Nc2ccc(-c3cn4c(n3)sc3cc(OCCN5CCOCC5)ccc34)cc2)no1 [Quizartinib]
  tumor growth kinetics (median tumor volumes over time): outgrowth of the tumor
